Active and inactive are the calls of the source. The rule behind the calls is not given here.
The compounds below were run on HEK-293T NF-kB luciferase reporter, luminescence counterscreen (assay: NF-kB reporter suppression in HEK-293T cells – luminescence, B-cell screen hits, counter-screen for BCR NF-kB inhibitor project, dose response (AID 489022)).

Structure (SMILES) | IC50
CCCS(=O)(=O)Nc1cccc(-c2ccc3nnc(C)n3n2)c1 | > 80 µM (inactive)
O=c1c(C=NCCCO)c(-c2ccccc2)[nH]n1-c1nc2ccccc2s1 | > 80 µM (inactive)
C#CCN(Cc1ccccc1)S(=O)(=O)C=C | 51.3 µM (inactive)
Oc1[nH]c2ccccc2c1N=Nc1nc(Nc2ccccc2)nc(N2CCOCC2)n1 | 35.5 µM (inactive)
Cc1csc(NC(=O)/C=C/c2ccc3c(c2)OCO3)n1 | > 80 µM (inactive)
Cn1nc(-c2ccc(Cl)cc2)c2cc(C(=O)N3CCCC3)sc21 | 3.75 µM
O=C(Nc1nc2nc(-c3ccccc3)cc(-c3ccccc3)n2n1)c1ccco1 | 23.5 µM (inactive)
CCn1c(CN2CCN(c3ccc(Cl)cc3)CC2)nc2ccccc21 | 9.25 µM
CCCC(=O)Nc1ccc(Sc2ccc([N+](=O)[O-])cc2)cc1 | 8.35 µM
COc1ccc(/C=C2/SC(=S)N(CCCC(=O)Nc3ccc(O)cc3)C2=O)cc1OC | > 80 µM (inactive)

From PubChem BioAssay AID489022 (Sanford-Burnham Center for Chemical Genomics, 2010)
